{"source": "patent US4256736A", "about": "“Psychopharmacological peptides” (Akzona Incorporated, priority 1978, dated 1981)", "key": {"[1]": {"details": "in words; cited from earlier work"}, "rats [2]": {"test_system": "rats", "test": "Ambulation of rats", "assay_type": "in vivo, rat", "details": "in words, higher dosages"}, "rats [3]": {"test_system": "rats", "test": "Pole-jumping avoidance behavior (pole climbing test), extinction of the flight response", "assay_type": "in vivo, rat", "details": "mean ± S.E.", "text": "Rats were trained to jump onto a pole within 5 sec. following presentation of the conditioned stimulus (CS) which was a light on top of the cage. […] 10 trials a day were given in one session with an average intertrial interval of 60 sec. Intervals between trials were 40, 60 and 80 sec. which were presented in a random fashion. Rats were trained for 4 days. Extinction was studied the day following acquisition. During this first post-acquisition session failure to respond within 5 sec. to the CS were not followed by the UCS. All rats were given a 10 trial extinction session. Those animals which made 8 or more avoidances were used for further experimentation. These rats received peptide or placebo (saline) in a volume of 0.5 ml per rat s.c. immediately after completion of the first extinction session. Extinction was studied again 2 and 4 h. later."}, "rats [4]": {"test_system": "rats", "details": "in words, prior art section; cited from earlier work"}, "opiate receptor": {"test_system": "opiate receptor", "details": "in words, prior art section; cited from earlier work"}, "melanocytes": {"test_system": "melanocytes", "details": "in words; cited from earlier work"}, "[5]": {"details": "in words; can be antagonised by naloxone; cited from earlier work"}, "[6]": {"details": "0.03 μg per rat s.c., 0 h (first extinction session, injection immediately after)"}, "[7]": {"details": "0.03 μg per rat s.c., 2 h after injection"}, "[8]": {"details": "0.03 μg per rat s.c., 4 h after injection"}, "[9]": {"details": "0.1 μg per rat s.c., 0 h (first extinction session, injection immediately after)"}, "[10]": {"details": "0.1 μg per rat s.c., 2 h after injection"}, "[11]": {"details": "0.1 μg per rat s.c., 4 h after injection"}, "[12]": {"details": "0.3 μg per rat s.c., 0 h (first extinction session, injection immediately after)"}, "[13]": {"details": "0.3 μg per rat s.c., 2 h after injection"}, "[14]": {"details": "0.3 μg per rat s.c., 4 h after injection"}}, "note": "“Also recorded” adds a separate entry of the source."}
{"compound": "γ-lipotropin", "values": [{"measurement": "fat-mobilising activity", "setting": "[1]", "value": "possesses fat-mobilising properties"}]}
{"compound": "γ-endorphin", "values": [{"measurement": "reduction in ambulation", "setting": "rats [2]", "value": "could not be observed"}, {"measurement": "Extinction (10 trials)", "setting": "rats [3]; [6]", "value": "8.8 ± 0.3"}, {"measurement": "Extinction (10 trials)", "setting": "rats [3]; [7]", "value": "6.7 ± 0.8"}, {"measurement": "Extinction (10 trials)", "setting": "rats [3]; [8]", "value": "4.0 ± 0.7"}, {"measurement": "Extinction (10 trials)", "setting": "rats [3]; [9]", "value": "9.3 ± 0.3"}, {"measurement": "Extinction (10 trials)", "setting": "rats [3]; [10]", "value": "5.5 ± 0.6"}, {"measurement": "Extinction (10 trials)", "setting": "rats [3]; [11]", "value": "2.3 ± 0.4"}, {"measurement": "Extinction (10 trials)", "setting": "rats [3]; [12]", "value": "9.0 ± 0.4"}, {"measurement": "Extinction (10 trials)", "setting": "rats [3]; [13]", "value": "4.6 ± 0.3"}, {"measurement": "Extinction (10 trials)", "setting": "rats [3]; [14]", "value": "0.8 ± 0.4"}, {"measurement": "effect on extinction of the (active) flight response in the pole-climbing test", "setting": "rats [4]", "value": "accelerate the extinction of the flight response"}]}
{"compound": "β-LPH-(61-69)", "values": [{"measurement": "affinity for the opiate receptor", "setting": "opiate receptor", "value": "a certain affinity for the opiate receptor"}, {"measurement": "effect on extinction of the (active) flight response in the pole-climbing test", "setting": "rats [4]", "value": "inhibit the extinction of the flight response"}]}
{"compound": "O=C(CCCN1CCC(O)(c2ccc(Cl)cc2)CC1)c1ccc(F)cc1", "note": "[Haloperidol]", "values": [{"measurement": "Extinction (10 trials)", "setting": "rats [3]; [6]", "value": "9.3 ± 0.3"}, {"measurement": "Extinction (10 trials)", "setting": "rats [3]; [7]", "value": "6.5 ± 0.7"}, {"measurement": "Extinction (10 trials)", "setting": "rats [3]; [8]", "value": "4.0 ± 0.6"}, {"measurement": "Extinction (10 trials)", "setting": "rats [3]; [9]", "value": "9.5 ± 0.4"}, {"measurement": "Extinction (10 trials)", "setting": "rats [3]; [10]", "value": "3.0 ± 0.0"}, {"measurement": "Extinction (10 trials)", "setting": "rats [3]; [11]", "value": "0.5 ± 0.4"}]}
{"compound": "D-Ala-Met-enkephalin", "values": [{"measurement": "affinity for the opiate receptor", "setting": "opiate receptor", "value": "Affinity for the opiate receptor"}]}
{"compound": "Met-enkephalin", "values": [{"measurement": "affinity for the opiate receptor", "setting": "opiate receptor", "value": "a certain affinity for the opiate receptor"}, {"measurement": "effect on extinction of the (active) flight response in the pole-climbing test", "setting": "rats [4]", "value": "inhibit the extinction of the flight response"}]}
{"compound": "β-Lipotropin", "values": [{"measurement": "fat-mobilising activity", "setting": "[1]", "value": "shows fat-mobilising activity"}]}
{"compound": "H-GGFMTSEKSQTPLVTL-OH [[Des-Tyr^1]γ-endorphin, H-Gly-Gly-Phe-Met-Thr-Ser-Glu-Lys-Ser-Gln-Thr-Pro-Leu-Val-Thr-Leu-OH]", "values": [{"measurement": "Extinction (10 trials)", "setting": "rats [3]; 0.01 μg per rat s.c., 0 h (first extinction session, injection immediately after)", "value": "9.0 ± 0.3"}, {"measurement": "Extinction (10 trials)", "setting": "rats [3]; 0.01 μg per rat s.c., 2 h after injection", "value": "6.2 ± 0.4"}, {"measurement": "Extinction (10 trials)", "setting": "rats [3]; 0.01 μg per rat s.c., 4 h after injection", "value": "4.2 ± 0.7"}, {"measurement": "Extinction (10 trials)", "setting": "rats [3]; [9]", "value": "8.8 ± 0.4"}, {"measurement": "Extinction (10 trials)", "setting": "rats [3]; [10]", "value": "2.8 ± 1.0"}, {"measurement": "Extinction (10 trials)", "setting": "rats [3]; [11]", "value": "1.2 ± 0.5"}, {"measurement": "Extinction (10 trials)", "setting": "rats [3]; [12]", "value": "9.3 ± 0.5"}, {"measurement": "Extinction (10 trials)", "setting": "rats [3]; [13]", "value": "3.0 ± 0.7"}, {"measurement": "Extinction (10 trials)", "setting": "rats [3]; [14]", "value": "1.3 ± 0.5"}]}
{"compound": "β-melanotropin", "values": [{"measurement": "influencing the pigmentation of the skin", "setting": "melanocytes", "value": "capable of influencing the pigmentation of the skin by stimulating the melanocytes"}]}
{"compound": "β-endorphin (YGGFMTSEKSQTPLVTLFKNAIIKNAYKKGE; Beta-endorphin; UniProt P01189 237-267, looked up)", "values": [{"measurement": "effect on extinction of the (active) flight response in the pole-climbing test", "setting": "rats [4]", "value": "inhibits the extinction of the (active) flight response"}, {"measurement": "analgesic activity", "setting": "[5]", "value": "possess analgesic activity"}]}
{"compound": "Leu-enkephalin", "values": [{"measurement": "affinity for the opiate receptor", "setting": "opiate receptor", "value": "Affinity for the opiate receptor"}]}
{"compound": "α-endorphin", "values": [{"measurement": "affinity for the opiate receptor", "setting": "opiate receptor", "value": "a certain affinity for the opiate receptor"}, {"measurement": "reduction in ambulation", "setting": "rats [2]", "value": "could not be observed"}, {"measurement": "Extinction (10 trials)", "setting": "rats [3]; [12]", "value": "9.0 ± 0.4"}, {"measurement": "Extinction (10 trials)", "setting": "rats [3]; [13]", "value": "8.3 ± 0.3"}, {"measurement": "Extinction (10 trials)", "setting": "rats [3]; [14]", "value": "7.8 ± 0.3"}, {"measurement": "effect on extinction of the (active) flight response in the pole-climbing test", "setting": "rats [4]", "value": "inhibit the extinction of the flight response; also recorded: retarded this extinction of the flight response"}]}
